Results as given in US20070286867A1, “Combination Therapy” (Fusion Antibodies Limited, priority 2003, published 2007).
One block for each compound: values may come before it. Where a SMILES comes first, the peptide text is derived from it. The star is where a group is joined. Cbz = O=C(OCc1ccccc1)*; CH2F = FC*

Tests used:
HCT116 p53 null cells = test: Propidium iodide flow cytometry, HCT116 p53 null; assay type: cell-based, human; details: drug 24 hours followed by CH-11 50 ng/ml 24 hours
Experimental: (§1) Cells were seeded at 1×10^5 per well of a 6-well tissue culture plate. […] DNA content of harvested cells was evaluated after propidium iodide staining of cells using the EPICS XL Flow Cytometer (Coulter, Miami, Fla.). […] Cells were seeded at 1×10^5 per well of a 6-well tissue culture plate. […] DNA content of harvested cells was evaluated after propidium iodide staining of cells using the EPICS XL Flow Cytometer (Coulter). A FITC-conjugated monoclonal anti-human Fas antibody (DAKO) was used to determine cell surface expression of the receptor. Cells were collected and washed twice in PBS before incubating in the antibody (1/20 dilution) at 4° C. for 30 mins. A non-reactive FITC-conjugated mouse IgG1 antibody was used as a negative control for each sample. Following incubation the cells were washed twice with PBS containing 2% bovine serum albumin and fixed in 0.3 mL 4% paraformaldehyde. Samples were then analysed on the EPICS XL Flow Cytometer (Coulter).

Fas/CD95 mRNA [1] = test: Real-time PCR of Fas/CD95 mRNA in HCT116 p53 null cells; assay type: cell-based, human; details: IC60 72hrs doses, 24 and 48 hours
Experimental: (§2) Real-time PCR was performed using a DNA Engine Opticon 2 (MJ Research Incorporated). TheDyNAmo SYBR Green qPCR kit (Finnzymes) was used as the fluoresent dye specific for double-stranded DNA. PCR conditions consisted of an initial denaturation step of 95° C. for 10 minutes, followed by 39 cycles of 94° C. for 10 secs, 55° C. for 20 secs and 72° C. for 20 secs, with a final extension of 72° C. for 10 minutes. A melting curve was included at the end of each run to check the specificity of the amplified product. Experiments were performed in triplicate to ensure reproducibility of the technique. On completion of the run the PCR products were run put on a 2% ethidium bromide agarose gel to confirm that their size matched that of the expected amplicon. Primer sequences were as follows: Fas (Forward) […], Fas (Reverse) […], 18S (Forward) […], 18S (Reverse) […].

Fas [2] = test: Western blot of Fas expression in HCT116 p53 null cells; assay type: cell-based, human; details: CPT-11 5 μM, 48 hours
Experimental: (§3) Western Blotting. Western blots were performed as previously described (6). The Fas/CD95, Bc1-2 and BID (Santa Cruz Biotechnology, Santa Cruz, Calif.), caspase 8 (Oncogene Research Products, Darmstadt, Germany), p53 (Santa Cruz Biotechnology), and PARP (Pharmingen, BD Biosciences, Oxford, England) mouse monoclonal antibodies were used in conjunction with a horseradish peroxidase (HRP)-conjugated sheep anti-mouse secondary antibody (Amersham, Little Chalfont, Buckinghamshire, England). FasL rabbit polyclonal antibody (Santa Cruz Biotechnology) was used in conjunction with an HRP-conjugated donkey anti-rabbit secondary antibody (Amersham). TS sheep monoclonal primary antibody (Rockland, Gilbertsville, Pa.) was used in conjunction with an HRP-conjugated donkey anti-sheep secondary antibody (Serotech, Oxford, England). Equal loading was assessed using a β-tubulin mouse monoclonal primary antibody (Sigma).

Fas/CD95 receptor [3] = test: Flow cytometry of Fas/CD95 cell surface expression, HCT116 p53 null; assay type: cell-based, human; details: 24 hours
Experimental: as §1

HCT116p53^+/+ cells = test: MTT cell viability assay in HCT116 p53 wild-type cells; assay type: cell-based, human; details: for interaction with CH-11 in MTT assay: range of drug concentrations 24 hours, then CH-11 200 ng/ml for 48 hours
Experimental: (§5) Cell Viability Assays. Cell viability was assessed by MTT (3-(4,5-dimethylthiazol-2-yl)-2,5-diphenyltetrazolium bromide, Sigma) assay (12). […] MTT (0.5 mg/ml) was then added to each well and the cells incubated at 37° C. for a further 3 hours. The culture medium was removed and formazan crystals reabsorbed in 200 μL DMSO. Cell viability was determined by reading the absorbance of each well at 570 nm using a 96-well microplate reader (Molecular Devices, Wokingham, England). […] Twenty microlitres (20 μL) MTT (5 mg/ml) was then added to each well and the cells incubated at 37° C. for a further 3 hours. The culture medium was removed and formazan crystals reabsorbed in 200 μL DMSO. Cell viability was determined by reading the absorbance of each well at 570 nm using an ELISA plate reader (Molecular Devices).
(§6) Statistical Analyses. The nature of the interaction between the chemotherapeutic drugs and CH-11 was determined by calculating the R index (RI), which was initially described by Kern and later modified by Romaneli (13, 14). […] Synergism is then defined as an RI of greater than unity. […] To further assess the statistical significance of the interactions, the inventors designed a univariate ANOVA analysis using the SPSS software package. This was an additive model based on the null hypothesis that there was no interaction between the drugs.

Fas [4] = test: Western blot of Fas expression in HCT116 p53 wild-type cells; assay type: cell-based, human; details: for induction of Fas/CD95 protein: 5-FU 5 μM, CPT-11 5 μM, Oxaliplatin 1 μM for 48 hours; for Fas expression: RTX after 72 hours, MTA data not shown
Experimental: as §3

Fas/CD95 mRNA [5] = test: Real-time PCR of Fas/CD95 mRNA in HCT116 p53 wild-type cells; assay type: cell-based, human; details: IC60 72hrs doses
Experimental: as §2

procaspase 8, PARP [6] = test: Western blot of procaspase 8 and PARP in HCT116 p53 null cells; assay type: cell-based, human; details: IC60 dose 24 hours followed by CH-11 200 ng/ml 24 hours
Experimental: as §3

Fas receptor = test: Fas/CD95 cell surface expression in p53 mutant H630 cell line (Example 11); assay type: cell-based; details: 48 hours; 5-FU 5 μM, CPT-11 5 μM, Oxaliplatin 1 μM
Experimental: (§4) Where flow cytometric analysis was employed in Examples 1 to 5, the following protocol was used. Cells were seeded at 1×10^5 per well of a 6-well tissue culture plate. […] DNA content of harvested cells was evaluated after propidium iodide staining of cells using the EPICS XL Flow Cytometer (Coulter, Miami, Fla.). Where flow cytometric analysis was employed in Examples 6 to 12, the following protocol was used. Cells were seeded at 1×10^5 per well of a 6-well tissue culture plate. […] DNA content of harvested cells was evaluated after propidium iodide staining of cells using the EPICS XL Flow Cytometer (Coulter). A FITC-conjugated monoclonal anti-human Fas antibody (DAKO) was used to determine cell surface expression of the receptor. Cells were collected and washed twice in PBS before incubating in the antibody (1/20 dilution) at 4° C. for 30 mins. A non-reactive FITC-conjugated mouse IgG1 antibody was used as a negative control for each sample. Following incubation the cells were washed twice with PBS containing 2% bovine serum albumin and fixed in 0.3 mL 4% paraformaldehyde. Samples were then analysed on the EPICS XL Flow Cytometer (Coulter).

H630 cells = test: MTT cell viability assay in p53 mutant H630 cells; assay type: cell-based; details: drug 24 hours, then CH-11 for 48 hours (Example 11)
Experimental: as §5, §6

procaspase 8, BID, PARP = test: Western blot of procaspase 8, BID and PARP in MCF-7 cells; assay type: cell-based
Experimental: as §3

Fas [7] = test: Western blot of Fas expression in M7TS90-E6 cells; assay type: cell-based; details: 10 μM 5-FU, 100 nM RTX or 1 μM MTA
Experimental: as §3

RKO cells = test: MTT cell viability assay in RKO cells; assay type: cell-based; details: data not shown
Fas [8] = test: Western blot of Fas expression in RKO cells; assay type: cell-based; details: 48 hours post-treatment; MTA data not shown
Experimental: as §3

procaspase 8, PARP [9] = test: Western blot of procaspase 8 and PARP in M7TS90-E6 cells; assay type: cell-based; details: p53 null; 5-FU 10 μM, RTX 100 nM, MTA 1 μM, CH-11 250 ng/ml; drugs alone data not shown
Experimental: as §3

Fas [10] = test: Western blot of Fas expression in M7TS90 cells; assay type: cell-based; details: 10 μM 5-FU, 100 nM RTX or 1 μM MTA for 72 hours
Experimental: as §3

Fas [11] = test: Western blot of Fas expression in MCF-7 cells; assay type: cell-based
Experimental: as §3

M7TS90-E6 cells = test: Flow cytometry sub-G1/G0 apoptotic fraction, M7TS90-E6; assay type: cell-based; details: 96 hours after drug treatment; RTX 100 nM, MTA 1 μM, 5-FU 10 μM
Experimental: as §4

MCF-7 cells [12] = test: MTT cell viability assay in MCF-7 cells; assay type: cell-based
Experimental: as §5, §6

Fas/CD95 receptor [13] = test: Flow cytometry of Fas/CD95 cell surface expression, HCT116 p53 wild-type; assay type: cell-based, human; details: 24 hours
Experimental: as §4

HCT116p53^−/− cells = test: MTT cell viability assay in HCT116 p53 null cells; assay type: cell-based, human; details: range of drug concentrations 24 hours, then CH-11 200 ng/ml for 48 hours
Experimental: as §5, §6

MCF-7 cells [14] = test: Flow cytometry of propidium iodide stained cells, sub-G1/G0 apoptotic fraction, MCF-7; assay type: cell-based; details: 25 nM RTX 72 hours, 250 ng/ml CH-11 24 hours; untreated control ~11%
Experimental: as §4

Fas [15] = test: Western blot of Fas expression in H630 cells; assay type: cell-based; details: range of concentrations, 48 hours
Experimental: as §3

FasL = test: Western blot of FasL expression in MCF-7 cells; assay type: cell-based; details: IC60 doses, 72 hours
Experimental: as §3

fold induction of Fas mRNA (Fas/CD95 mRNA [5]; 24 hours): 7.0 fold | fold induction of Fas mRNA (Fas/CD95 mRNA [5]; 48 hours): 2.5 fold
SMILES: CCc1c2c(nc3ccc(OC(=O)N4CCC(N5CCCCC5)CC4)cc13)-c1cc3c(c(=O)n1C2)COC(=O)[C@]3(O)CC [CPT-11, Irinotecan]
interaction with CH-11 by propidium iodide staining (HCT116 p53 null cells): significant synergy | maximum induction of Fas mRNA (Fas/CD95 mRNA [1]): 1.9 fold | induction of Fas/CD95 protein (Fas [2]): induction of Fas/CD95 protein | induction of Fas/CD95 receptor cell surface expression (Fas/CD95 receptor [3]): induction of the Fas/CD95 receptor | interaction with CH-11 in MTT assay (HCT116p53^+/+ cells): significant synergy | induction of Fas/CD95 protein (Fas [4]): significant induction | PARP cleavage and procaspase 8 activation following the addition of CH-11 (procaspase 8, PARP [6]): PARP cleavage and procaspase 8 activation | induction of the Fas receptor (Fas receptor): Induction of the Fas receptor | interaction with CH-11 in MTT assay (H630 cells): significant synergy

effect on PARP cleavage in 5-FU/CH-11 co-treated cells (procaspase 8, BID, PARP; 10 μM IETD-fmk, 24 hours): inhibited PARP cleavage | effect on processing of procaspase 8 in cells co-treated with 5-FU and CH-11 (procaspase 8, BID, PARP; 10 μM IETD-fmk, 24 hours): blocked processing of procaspase 8
SMILES: CC[C@H](C)[C@H](NC(=O)OCc1ccccc1)C(=O)N[C@@H](CCC(=O)OC)C(=O)N[C@H](C(=O)N[C@@H](CC(=O)OC)C(=O)CF)[C@@H](C)O [IETD-fmk] (Cbz-IE(OMe)TD(OMe)-CH2F)

SMILES: Nc1nc2[nH]cc(CCc3ccc(C(=O)N[C@@H](CCC(=O)O)C(=O)O)cc3)c2c(=O)[nH]1 [MTA, pemetrexed]
interaction with CH-11 to decrease cell viability (HCT116p53^+/+ cells; data not shown): synergistically interacted | Fas up-regulation (Fas [7]): did not result in Fas up-regulation | interaction with CH-11 to decrease cell viability (RKO cells): synergistically interacted | Fas expression (Fas [8]): up-regulated | PARP cleavage / processing (procaspase 8, PARP [9]): processed | effect of TS induction on drug-mediated up-regulation of Fas (Fas [10]): abrogated | Fas expression (Fas [11]; MTA data not shown, CH-11 alone 250 ng/ml, 5-FU alone 5 μM): up-regulated | Fas expression (Fas [4]): up-regulated | induction of apoptosis by drug alone (M7TS90-E6 cells): ~6 fold | interaction with CH-11 to decrease cell viability (MCF-7 cells [12]; data not shown): synergistically interacted

SMILES: O=C1[O][Pt]2([NH][C@@H]3CCCC[C@H]3[NH]2)[O]C1=O [Oxaliplatin]
maximum induction of Fas mRNA (Fas/CD95 mRNA [1]): no induction | interaction with CH-11 in MTT assay (HCT116p53^+/+ cells): significant synergy | induction of Fas/CD95 receptor cell surface expression (Fas/CD95 receptor [13]): significantly induce expression | interaction with CH-11 in MTT assay (HCT116p53^−/− cells): no synergistic interaction | induction of Fas/CD95 protein (Fas [4]): significant induction | induction of the Fas receptor (Fas receptor): Neither 5-FU nor Oxaliplatin treatment for 48 hours caused significant upregulation

SMILES: Cc1nc2ccc(CN(C)c3ccc(C(=O)N[C@@H](CCC(=O)O)C(=O)O)s3)cc2c(=O)[nH]1 [RTX, ralitrexed]
interaction with CH-11 by propidium iodide staining (HCT116 p53 null cells): to a lesser extent | cells in the sub-G1/G0 apoptotic phase (MCF-7 cells [14]): ~16% | Fas expression (Fas [15]): not significantly altered | induction of Fas/CD95 receptor cell surface expression (Fas/CD95 receptor [3]): induction of the Fas/CD95 receptor | interaction with CH-11 in MTT assay (HCT116p53^+/+ cells): significant synergy | Fas up-regulation (Fas [7]): did not result in Fas up-regulation | FasL expression (FasL): unaffected | Fas expression (Fas [8]): dramatic Fas up-regulation | PARP cleavage / processing (procaspase 8, PARP [9]): processed | effect of TS induction on drug-mediated up-regulation of Fas (Fas [10]): abrogated | activation of caspase 8 and BID (processing of procaspase 8 and full-length BID), words (procaspase 8, BID, PARP; 5 μM 5-FU or 25 nM RTX 72 hours, CH-11 250 ng/ml 24 hours): neither caspase 8, nor its substrate BID were activated | Fas protein up-regulation (Fas [11]; 72 hours, IC60 dose (5 μM 5-FU, 25 nM RTX)): ~7 fold | Fas expression (Fas [4]): dramatically increased | induction of apoptosis by drug alone (M7TS90-E6 cells): ~8 fold | induction of Fas mRNA expression (Fas/CD95 mRNA [5]; 24 and 48 hours): significant induction | IC60 dose (MCF-7 cells [12]; MCF-7): 25 nM
